For 63 molecules, melting point results are on record in a melting point compilation (Tetko et al.; mined from patent text by program, amines drawn as free bases though some values may be those of a salt).

In general, melting point refers to the temperature of the solid-liquid transition.

Molecules are shown by their SMILES.

For the molecule `N=C(Nc1ccc(F)cc1)Nc1ncccc1OCc1c(F)cccc1Cl`, the melting point was 152 to 154 °C.

Consider `Cc1ccc2c(Cl)cc(S(=O)(=O)NCc3ccc(Cl)cc3)c(O)c2n1`, for which the melting point lay within 158 to 161 °C.

For the molecule `CCC(=O)NC[C@H]1CN(c2ccc(C3C=CS(=O)(=O)CC3)cc2)C(=O)O1` (stereo partly drawn), the melting point fell in the range of 144 to 147 °C. The figure for `COc1ccc(Cl)cc1C(=N)Nc1cc(Cl)cc(NC(=O)/C=C/c2ccccc2Cl)c1` is 226 to 228 °C; for `Cc1c(C(=O)c2ccc(F)cc2)c(C)n(C)c1C(=O)c1cccnc1` it is 85 to 88 °C; for `CCCc1ccnc2c(=O)[nH]c(-c3cc(S(=O)(=O)N4CCN(C)CC4)ccc3OCC)nc12` it is 211 to 212 °C. `O=C(NCc1ccncc1)c1[nH]c2ccc(Cl)cc2c1S(=O)c1ccccc1` (stereo not drawn): the melting point was 233 to 235 °C.

With `COc1cc(OC)c2ccccc2c1O`, the melting point lay within 87 to 88 °C. The figure for `CC(C)(C)CN1C(=O)N(CC(=O)O)CC(c2ccccc2Cl)c2cc(Cl)ccc21` (stereo not drawn) is 228 to 231 °C; for `CC1=C(C#N)C(c2cccc3ncc(Cc4ccccc4)cc23)C(C(=O)OC(C)C)=C(C)N1` (stereo not drawn) it is 188 to 190 °C; for `COc1ccsc1C(=O)C=C(C)C` it is 49 to 51 °C.

The molecule `CC(=O)Nc1ccc2c(c1)C(CN1CCC(c3ccc(F)cc3)CC1)CC2` (stereo not drawn) returned a melting point of 145 to 146 °C. `FC(F)(F)c1nc(Cl)c2ccccc2n1` came in with a melting point of 62 to 63.5 °C. The figure for `O=C(O)c1ccccc1OCCN1CCC(c2cn(CCC3OCCO3)c3ccccc23)CC1` is 118 to 120 °C.

The molecule `CCOC(=O)c1c(C(C)C)csc1N/C=C(\C#N)C(=O)OC(C)(C)C` gave a melting point of 93 to 94 °C. The molecule `CC(=O)NNc1ccnc2c(NC(=O)c3c(Cl)cccc3Cl)cccc12` returned a melting point of 252 °C. `COc1ccc2c(c1)C(=O)N(c1ccc3c(ccn3C)c1)C2` displayed a melting point of 193 to 197 °C.

`CCCCN1CCC(n2nc(-c3c(-c4ccccc4)nn4ccccc34)ccc2=O)CC1`: the melting point fell in the range of 106 to 108 °C. As for `CC(C)C(=O)O[C@H]1[C@H](C)OC(=O)[C@@H](NC(=O)OC(C)(C)C)COC(=O)[C@@H]1CSc1ccccn1`, the figure is 54 to 58 °C; as for `CSc1c(CC(=O)O)cc(C)c2c3ccccc3n(Cc3ccccc3)c12`, 219 to 220 °C. The figure for `CO/N=C(/C(N)=O)c1ccccc1COC(C)=O` is 121 to 123 °C; for `COC(=O)Cc1cc2c(cc1CC1NCCc3cc(OC)c(OC)cc31)OCO2` (stereo not drawn) it is 99 to 101 °C.

Consider `CC1CCc2c(N3CCCC3)ccc3c(=O)c(C(=O)O)cn1c23` (stereo not drawn), for which the melting point was 170 to 174 °C. The figure for `C[C@H]1[C@H]2O[C@H]2C(S(=O)(=O)c2ccccc2)=C[C@H](C)[C@H]1O[Si](C)(C)C(C)(C)C` is 89 to 90 °C. The figure for `O=[N+]([O-])c1ccc(Oc2ccc(C(F)(F)F)cc2Cl)nc1` is 69 to 72 °C; for `CCCOC(=O)C1=C(C)NC(C#N)=C(C(=O)OC)C1c1ccccc1C#N` (stereo not drawn) it is 150 to 152 °C; for `CCCCNC(=O)NC1Cc2ccc(C3=NNC(=O)CC3)cc2C1` (stereo not drawn) it is 206 to 207 °C.

The molecule `CCCCCCCCCCCc1nc2c(O)c(Cl)c(C)c(Cl)c2cc1CCCCCCCCCC` registered a melting point of 54.5 to 56 °C. As for `O=C(O)c1cc2cc(-c3ccsc3)ccc2o1`, the figure is 215 to 220 °C. The figure for `CC(C)(C)OC(=O)N1CCN(c2cccc3ccc(Nc4ncccc4N)cc23)CC1` is 183 to 184 °C. As to `CCCC(=O)NC1C=CC(CO)C1` (stereo not drawn), the melting point lay in the range of 71 to 72 °C.

`C=C(C)c1cc(Br)c(Oc2nc(C)nc3c2nnn3C(CCC)CCC)c(OC)c1` displayed a melting point of 110 to 115 °C.

The molecule `CC(C)(CNc1ccnc2cc(Cl)ccc12)NCc1ccc(C(F)(F)F)cc1` gave a melting point of 145 to 147 °C. The figure for `CCNc1nc(N)nc(-c2ccccc2)c1-c1ccc(=O)n(C(C)C)n1` is 208 to 209 °C; for `COc1ccc(-c2cccc(C(=O)NO)c2C)cc1OCCCCCc1ccccc1` it is 125 to 126 °C. As for `CCCOc1ccccc1-c1ncc(N)c(=O)[nH]1`, the figure is 157 to 158 °C. The figure for `CC(C)c1nc(-c2ccccn2)ncc1-c1ccc(Cl)cc1` is 145 °C; for `CNC(=O)C(=NOC)c1ccccc1Oc1cccc(-c2ccc(Cl)cc2)c1` it is 118 to 121 °C; for `Cc1nc2cc(F)c(C)cc2c(=O)[nH]1` it is 173 to 174 °C. Take `COc1cc(OC)c(-c2cccs2)cc1/C=C/C(=O)c1ccc(S(=O)(=O)Nc2ccccn2)cc1`: the melting point lay in the range of 141 to 143 °C.

As for `CC(C)Oc1ccc(-n2c(C(=O)O)c(C(=O)O)c3cc(Oc4cccc(Cl)c4)ccc32)cc1`, the melting point was in the range of 182 to 190 °C. As for `CCOC(=N)c1sc2cc(Cl)ccc2c1O`, the figure is 226 °C; as for `CC(=O)NC[C@H]1CN(c2ccc(N3CCC(n4nccn4)CC3)c(F)c2)C(=O)O1`, 197 °C; as for `Cc1ccccc1-n1c(CSc2ncnc3[nH]cnc23)nc2cccc(Cl)c2c1=O`, 214 °C. Molecule `Nc1ccc(-c2ccc(C(=O)NC3CN4CCC3CC4)o2)cc1` (stereo not drawn) had a melting point of 103 to 113 °C.

Molecule `Clc1cccc(-c2onc3ccc(Br)cc23)c1` displayed a melting point of 163 °C. The figure for `CC(C)(CC(C)(c1ccccc1)c1ccc(O)c(C(=O)O)c1)c1ccccc1` (stereo not drawn) is 153 to 155 °C; for `O=C(O)COC1=C(Cc2ccc3ccccc3c2)C(=O)CCC1` it is 170 to 171 °C; for `CCc1ccc2c(c1)C(=O)c1ccc(-c3nnn[nH]3)cc1S2(=O)=O` it is 239 °C. Consider `COCCn1cc2c(C3C(=O)Nc4ccc(Br)cc43)nc(NCCCN(C)C)nc2n1` (stereo not drawn), for which the melting point was 297 to 298 °C. As for `CCCCOC(=O)CS(=O)(=O)CC=C1SC=CS1`, the figure is 99 to 100 °C; as for `CC(C)CCC1CCCCCc2c1oc(=O)c(C(c1ccccc1)C1CC1)c2O` (stereo not drawn), 83 to 88 °C; as for `Cc1ccc(C(F)(F)F)cc1[N+](=O)[O-]`, 31 to 33 °C.

Molecule `O=C1CCc2ccc(O)cc2O1` returned a melting point of 133 to 136 °C. For the molecule `C=CCN1CCC(=O)N(c2c(C)cccc2C)C1=S`, the melting point is 88 to 91 °C.

With `O=C(Nc1nc2c(Oc3cc(-c4ccc(C(F)(F)F)cc4)ncn3)cccc2s1)C(O)c1ccccc1` (stereo not drawn), the melting point fell in the range of 198 to 205 °C. Turning to `CC(=O)OCC=C(C)CS(=O)(=O)c1ccccc1`, the melting point was in the range of 86 to 92 °C. As for `CCSc1ccc(-c2coc3ccc(-c4nnc(C)o4)nc23)cc1`, the figure is 174 to 175 °C. The figure for `Nc1cccc(C#CC=Cc2cccc(N)c2)c1` is 105 to 106 °C. `CCOC(=O)c1nnnn1Cc1ccccc1[N+](=O)[O-]` yielded a melting point of 90 to 92 °C. As for `CCOC(=O)c1cn(-c2nc3ccccc3[nH]2)cn1`, the figure is 252 to 253 °C; as for `COc1ccc2c(c1)CCN1CCC(Nc3ccc(NC(C)=O)cc3)CC21` (stereo not drawn), 219 to 221 °C. In turn, `O=C(COCCCl)Nc1ccc([N+](=O)[O-])cc1` showed a melting point of 101 to 102 °C.
